Test results from the SangsterLogP compilation.

Row | SMILES | logP
1 | CCI | 2
2 | Clc1cccc(-c2ccccc2)c1 | 4.58
3 | CC(C)NCC(O)c1ccc([N+](=O)[O-])cc1 (stereo unspecified) | 1.28
4 | N#Cc1ccc(O)cc1 | 1.6
5 | FCF | 0.2
6 | CCOc1ccc(O)cc1 | 1.81
7 | CC(C)(c1ccc(O)cc1)c1ccc(O)cc1 | 3.32
8 | C[C@]12CCC(=O)C=C1CC[C@@H]1[C@@H]2C(=O)C[C@@]2(C)[C@H]1CC[C@]2(O)C(=O)CO | 1.47
9 | Oc1ccnc(S)n1 | -0.28
10 | NC1=C(Cl)C(=O)c2ccccc2C1=O | 2.12
11 | CC(=O)Nc1ccccc1 | 1.16
12 | Cc1ccc(CC(=O)O)cc1 | 1.86
13 | COC | 0.1
14 | CCCCc1ccc(S(N)(=O)=O)cc1 | 2.45
15 | CCC(C)n1nnc2ccccc21 (stereo unspecified) | 2.31
16 | O=C1NC(=O)C(c2ccccc2)(c2ccccc2)N1 | 2.47
17 | COC(=O)C(C#N)=NNc1cc(Cl)cc(Cl)c1 | 4.5
18 | CC(=O)Nc1ccc(C(=O)O)cc1 | 1.31
19 | Nc1ccccc1-c1ccccc1 | 2.84
20 | O=c1ccn([C@H]2C[C@H](O)[C@@H](CO)O2)c(=O)[nH]1 | -1.51
21 | CNC(=O)OC | -0.06
22 | CC(=O)Nc1ccccn1 | 0.61
23 | O=C(O)CCc1ccccc1 | 1.84
24 | CCOC(C)=O | 0.73

Row | SMILES | logP
25 | OCC(O)CO | -1.76
26 | CN(C)C(=O)Nc1ccc(Cl)cc1 | 1.94
27 | O=C(O)c1ccccc1Oc1ccccc1 | 3.11
28 | Cc1cn([C@H]2C[C@H](O)[C@@H](CO)O2)c(=O)[nH]c1=S | -0.07
29 | NS(=O)(=O)c1ccccc1[N+](=O)[O-] | 0.34
30 | CNC(=O)Oc1cccc(I)c1 | 2.52
31 | N#Cc1ccc([N+](=O)[O-])cc1 | 1.19
32 | CCc1cccc2ccccc12 | 4.4
33 | O=C1CN=C(c2ccccc2)c2cc([N+](=O)[O-])ccc2N1 | 2.25
34 | Nc1nc2c(ncn2[C@H]2C[C@H](O)[C@@H](CO)O2)c(=S)[nH]1 | -0.79
35 | c1ccc2cc3c(ccc4ccccc43)cc2c1 | 5.76
36 | Oc1ccc(Br)cc1Br | 3.22
37 | CN | -0.57
38 | CF | 0.51
39 | CCCn1nnc2ccccc21 | 2.13
40 | NS(=O)(=O)c1cccc(Cl)c1 | 1.29
41 | C=CCNCC=C | 1.11
42 | CCCCC1(CC)C(=O)NC(=O)NC1=O | 1.73
43 | Nc1ccc2ccccc2c1 | 2.28
44 | C#CC | 0.94
45 | c1ccc(-c2ncc[nH]2)cc1 | 1.88
46 | O=C(Oc1ccccc1)c1ccccc1 | 3.59
47 | CN(C)CCN1C(=O)c2ccccc2N(C)c2ccccc21 | 2.5
48 | CCC1(CC)C(=O)NC(=S)NC1=O | 1.5

Row | SMILES | logP
49 | CSc1ccc2c(c1)N(CCC1CCCCN1C)c1ccccc1S2 (stereo unspecified) | 5.9
50 | Cc1ccc(N=C=S)cc1 | 3.92
51 | O=C1CNC(=O)N1 | -1.69
52 | CCOC(=O)Cc1ccccc1 | 2.28
53 | CCCN(CC)CCC | 2.68
54 | Nc1ccc(C(=O)O)c(O)c1 | 0.89
55 | OCc1cccc(O)c1 | 0.49
56 | CC(=O)N(C)c1ccccc1 | 1.12
57 | O=C1NS(=O)(=O)c2ccccc21 | 0.91
58 | CNC(=O)Oc1ccc2c(c1)[C@]1(C)CCN(C)[C@@H]1N2C | 1.58
59 | CCCCCCCN | 2.57
60 | N=c1ccn(O)c2ccccc12 | 0.05
61 | O=C(O)Cc1ccc(F)cc1 | 1.55
62 | Cc1ccc(CO)cc1 | 1.58
63 | CCCN(CCC)S(=O)(=O)c1ccc(C(=O)O)cc1 | 3.21
64 | C[C@]12CCC(=O)C=C1CC[C@@H]1[C@@H]2[C@@H](O)C[C@]2(C=O)[C@@H](C(=O)CO)CC[C@@H]12 | 1.08
65 | Oc1ccc(Cl)cc1Cl | 3.06
66 | CCOc1cccc(O)c1 | 1.98
67 | O=[N+]([O-])c1cccc2c1ccc[n+]2[O-] | 0.49
68 | COc1ccc(C(C)=O)cc1 | 1.74
69 | Fc1ccc(F)cc1 | 2.13
70 | O=C(O)c1ccccn1 | 0.72
71 | O=C(O)C(c1ccccc1)c1ccccc1 | 3.09
